In ChEMBL document CHEMBL3603732, “Synthesis, biological evaluation and molecular modeling of new tetrahydroacridine derivatives as potential multifunctional agents for the treatment of Alzheimer's disease” (Bioorg Med Chem, 2015):

Experiments:
Acetylcholinesterase [1] = molecular target: Acetylcholinesterase (Electrophorus electricus, UniProt O42275)
Description: Inhibition of electric eel AChE using ATC iodide substrate by Ellman's assay

Cholinesterase = Cholinesterase (Equus caballus, UniProt P81908)
Description: Inhibition of equine serum BChE using ATC iodide substrate by Ellman's assay

Acetylcholinesterase [2] = molecular target: T1, Acetylcholinesterase (Homo sapiens, UniProt P22303); assay: biochemical
T1 sequence (P22303 whole entry): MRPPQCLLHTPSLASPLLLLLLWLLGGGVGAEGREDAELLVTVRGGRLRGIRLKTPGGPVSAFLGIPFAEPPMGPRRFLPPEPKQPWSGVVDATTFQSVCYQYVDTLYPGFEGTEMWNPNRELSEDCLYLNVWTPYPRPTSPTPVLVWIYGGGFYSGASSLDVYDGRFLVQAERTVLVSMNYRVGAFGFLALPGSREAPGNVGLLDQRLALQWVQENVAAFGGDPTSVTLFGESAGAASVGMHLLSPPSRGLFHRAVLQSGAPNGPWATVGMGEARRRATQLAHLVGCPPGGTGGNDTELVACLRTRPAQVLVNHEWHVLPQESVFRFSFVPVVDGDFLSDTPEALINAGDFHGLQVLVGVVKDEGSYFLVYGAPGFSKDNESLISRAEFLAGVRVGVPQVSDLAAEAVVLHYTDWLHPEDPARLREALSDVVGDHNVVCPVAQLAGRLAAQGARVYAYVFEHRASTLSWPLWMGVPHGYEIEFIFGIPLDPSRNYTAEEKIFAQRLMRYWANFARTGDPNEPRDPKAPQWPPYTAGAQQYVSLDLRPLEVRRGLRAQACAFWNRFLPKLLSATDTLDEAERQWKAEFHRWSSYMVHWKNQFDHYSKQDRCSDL
Description: Inhibition of acetylcholinesterase in human erythrocytes using acetylthiocholine iodide substrate by spectrophotometric Ellman's method

A549 = assay: Cytotoxic activity against human A549 cells assessed as reduction in cell viability incubated for 48 hrs by WST1 assay; assay type: cell-based; conditions: A549, 48 h
[3] = Cytotoxic activity against human A549 cells assessed as cell viability at 100 nM incubated for 48 hrs by WST1 assay; assay type: cell-based; conditions: read-out: Activity
acetylcholinesterase [4] = assay: Selectivity index, ratio of IC50 for cytotoxic activity against human A549 cells to IC50 for acetylcholinesterase in human erythrocytes; assay type: toxicity, cell-based; conditions: read-out: Ratio IC50
Acetylcholinesterase [5] = molecular target: T1, Acetylcholinesterase; assay: Inhibition of AChE (unknown origin) assessed as enzyme-mediated Amyloid beta peptide (1 to 42) aggregation incubated for 5 hrs by thioflavin-T based fluorometric assay

Sequence of Acetylcholinesterase (Electrophorus electricus, UniProt O42275) (O42275 whole entry): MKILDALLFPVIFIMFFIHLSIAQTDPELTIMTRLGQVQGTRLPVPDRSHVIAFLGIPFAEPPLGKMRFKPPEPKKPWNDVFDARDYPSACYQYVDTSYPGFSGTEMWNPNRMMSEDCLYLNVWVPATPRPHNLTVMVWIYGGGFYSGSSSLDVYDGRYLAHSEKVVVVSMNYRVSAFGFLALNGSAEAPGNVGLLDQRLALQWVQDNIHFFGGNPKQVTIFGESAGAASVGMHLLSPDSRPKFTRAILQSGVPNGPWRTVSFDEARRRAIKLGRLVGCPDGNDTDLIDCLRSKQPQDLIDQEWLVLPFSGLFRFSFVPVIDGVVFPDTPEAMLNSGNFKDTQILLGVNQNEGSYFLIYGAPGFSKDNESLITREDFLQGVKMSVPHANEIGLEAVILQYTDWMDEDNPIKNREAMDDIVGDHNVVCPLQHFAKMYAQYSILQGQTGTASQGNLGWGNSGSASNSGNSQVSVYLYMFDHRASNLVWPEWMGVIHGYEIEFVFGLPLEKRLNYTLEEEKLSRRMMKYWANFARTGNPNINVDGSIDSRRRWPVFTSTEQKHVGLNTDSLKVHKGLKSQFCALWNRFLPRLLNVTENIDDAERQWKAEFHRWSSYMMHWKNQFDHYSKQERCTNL
Sequence of Cholinesterase (P81908 whole entry): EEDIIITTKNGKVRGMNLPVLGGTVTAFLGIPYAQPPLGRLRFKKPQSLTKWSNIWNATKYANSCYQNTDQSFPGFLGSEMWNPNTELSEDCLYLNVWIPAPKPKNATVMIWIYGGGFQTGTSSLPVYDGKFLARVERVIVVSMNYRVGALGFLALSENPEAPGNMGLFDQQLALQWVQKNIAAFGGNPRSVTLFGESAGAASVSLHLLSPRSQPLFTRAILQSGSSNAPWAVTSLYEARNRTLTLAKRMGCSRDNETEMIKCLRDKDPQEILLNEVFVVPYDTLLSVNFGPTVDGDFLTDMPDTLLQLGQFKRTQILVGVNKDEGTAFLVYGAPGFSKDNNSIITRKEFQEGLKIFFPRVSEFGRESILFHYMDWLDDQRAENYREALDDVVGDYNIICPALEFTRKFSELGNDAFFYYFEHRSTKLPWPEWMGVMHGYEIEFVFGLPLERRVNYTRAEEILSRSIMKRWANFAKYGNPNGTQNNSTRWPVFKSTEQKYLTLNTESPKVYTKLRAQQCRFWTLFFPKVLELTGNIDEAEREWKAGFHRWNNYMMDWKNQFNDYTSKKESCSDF

Structure (SMILES)	IC50 (Acetylcholinesterase [1]) [µM]	IC50 (Cholinesterase) [µM]	IC50 (Acetylcholinesterase [2]) [µM]	IC50 (A549) [µM]	viability at 48 h, 0.1 µM [3] [%]	selectivity ratio (acetylcholinesterase [4])	IC50 (Acetylcholinesterase [5]) [µM]
CN(C)c1ccc(C(=O)NCCCCCCCCCNc2c3c(nc4ccccc24)CCCC3)cc1	0.0005	0.0007	0.125	–	–	–	–
CN(C)c1ccc(C(=O)NCCCCCCNc2c3c(nc4ccccc24)CCCC3)cc1	0.0006	0.0011	0.064	–	–	–	–
CN(C)c1ccc(C(=O)NCCCNc2c3c(nc4ccccc24)CCCC3)cc1	0.2	0.0733	0.019	46.3	91.3	2500	–
CN(C)c1ccc(C(=O)NCCCCCCCCNc2c3c(nc4ccccc24)CCCC3)cc1	0.0005	0.0007	0.077	–	–	–	–
CN(C)c1ccc(C(=O)NCCCCCCCNc2c3c(nc4ccccc24)CCCC3)cc1	0.167	0.21	0.075	–	–	–	–
CN(C)c1ccc(C(=O)NCCCCNc2c3c(nc4ccccc24)CCCC3)cc1	0.2	0.007	0.295	–	–	–	–
CN(C)c1ccc(C(=O)NCCCCCNc2c3c(nc4ccccc24)CCCC3)cc1	0.0867	0.0037	0.357	–	–	–	–
CN(C)c1ccc(C(=O)NCCNc2c3c(nc4ccccc24)CCCC3)cc1	0.0004	0.0005	0.142	39.1	93.7	275	12.1
